In patent US12617797B2, “Substituted pyrazolo [1,5-a]pyrimidines having multimodal activity against pain” (ESTEVE PHARMACEUTICALS, S.A., priority 2020, dated 2026) one finds Ki data, which are given here for 13 molecules.

The target in assay [1] is Human α2δ-1 subunit of Cav2.2 calcium channel (Homo sapiens, UniProt P54289). As to the kind of experiment: Human α2δ-1 subunit of Cav2.2 calcium channel assay ([3H]-gabapentin binding). Conditions: binding to the α2δ-1 subunit of voltage-gated calcium channels expressed as Ki; + also covers inhibition between 1% and 50%. In a few lines:
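Displacement of 15 nM [3H]-gabapentin from human α2δ-1-enriched membranes (Hepes-KOH 10 mM, pH 7.4; 27 °C, 60 min) read by filter binding and radioactivity counting. Values are single-point % inhibition (1 or 10 μM) or five-point Ki; 10 μM pregabalin sets NSB.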

Assay [2] addresses T1, Human σ1 receptor (Homo sapiens, UniProt Q99720).
T1 construct: expressed in transfected cells; host or cells: HEK-293
Nature of the assay: Human σ1 receptor radioligand assay ([3H](+)-pentazocine binding, transfected HEK-293 membranes). Conditions: binding to σ1 receptor expressed as Ki; + also covers inhibition between 1% and 50%; read-out: σ-1 binding. The procedure, abridged:
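Ki was derived from five test concentrations, or % inhibition was measured at a single 1 or 10 μM dose, against 5 nM [3H](+)-pentazocine. Incubation was 120 min at 37° C in 50 mM Tris-HCl pH 8 with 7 μg HEK-293 membranes, and 10 μM haloperidol set non-specific binding. Bound radioactivity was counted after filtration.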

T1 sequence (Q99720 whole entry): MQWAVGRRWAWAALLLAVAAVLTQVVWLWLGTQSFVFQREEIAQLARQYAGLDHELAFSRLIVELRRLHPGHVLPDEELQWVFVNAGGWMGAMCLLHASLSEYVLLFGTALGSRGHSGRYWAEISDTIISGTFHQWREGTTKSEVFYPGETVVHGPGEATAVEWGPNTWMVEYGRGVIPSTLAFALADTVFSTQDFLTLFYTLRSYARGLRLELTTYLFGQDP
Sequence of Human α2δ-1 subunit of Cav2.2 calcium channel (P54289 25-1103): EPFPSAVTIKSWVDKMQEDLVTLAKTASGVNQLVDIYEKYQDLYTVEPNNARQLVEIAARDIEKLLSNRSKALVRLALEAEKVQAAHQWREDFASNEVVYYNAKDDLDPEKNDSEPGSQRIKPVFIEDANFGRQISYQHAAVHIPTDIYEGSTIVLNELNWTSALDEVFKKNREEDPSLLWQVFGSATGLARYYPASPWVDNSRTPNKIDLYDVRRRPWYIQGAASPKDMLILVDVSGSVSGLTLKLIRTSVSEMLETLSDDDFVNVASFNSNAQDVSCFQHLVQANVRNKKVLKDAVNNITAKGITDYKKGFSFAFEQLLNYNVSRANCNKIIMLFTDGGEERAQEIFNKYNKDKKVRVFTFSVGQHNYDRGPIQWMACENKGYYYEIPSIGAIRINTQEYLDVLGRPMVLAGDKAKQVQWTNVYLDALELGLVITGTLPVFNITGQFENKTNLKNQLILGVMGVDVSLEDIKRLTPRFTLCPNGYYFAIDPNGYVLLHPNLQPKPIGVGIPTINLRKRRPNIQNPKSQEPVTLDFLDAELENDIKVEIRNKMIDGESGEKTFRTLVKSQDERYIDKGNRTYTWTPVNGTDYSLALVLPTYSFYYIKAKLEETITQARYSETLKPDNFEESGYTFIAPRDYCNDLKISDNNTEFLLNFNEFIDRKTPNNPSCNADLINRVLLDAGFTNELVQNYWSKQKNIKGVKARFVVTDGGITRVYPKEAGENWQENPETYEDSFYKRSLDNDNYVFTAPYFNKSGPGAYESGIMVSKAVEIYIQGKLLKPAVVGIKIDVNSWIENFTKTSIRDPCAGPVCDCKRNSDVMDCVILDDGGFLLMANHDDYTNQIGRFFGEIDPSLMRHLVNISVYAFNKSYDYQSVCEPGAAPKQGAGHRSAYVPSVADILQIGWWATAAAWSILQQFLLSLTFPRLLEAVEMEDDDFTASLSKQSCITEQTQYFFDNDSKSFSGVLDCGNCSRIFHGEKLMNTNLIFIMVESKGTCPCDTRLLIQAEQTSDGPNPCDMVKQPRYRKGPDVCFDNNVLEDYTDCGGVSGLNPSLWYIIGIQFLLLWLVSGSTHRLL

For `Clc1ccc(-c2cc3nccc(C4CCCN(Cc5ccccc5)C4)n3n2)cc1` (centres unmarked) [Example 15, 7-(1-Benzylpiperidin-3-yl)-2-(4-chlorophenyl)pyrazolo[1,5-a]pyrimidine], the Ki in assay [1] was above 5 µM; in assay [2] it was above 1 µM.

In the case of `c1ccc(CN2CCCC(c3ccnc4cc(-c5ccncc5)nn34)C2)cc1` (centres unmarked) [Example 16, 7-(1-Benzylpiperidin-3-yl)-2-(pyridin-4-yl)pyrazolo[1,5-a]pyrimidine], the Ki in assay [1] is 0.5 to 5 µM; in assay [2], above 1 µM.

As to `CC(=O)N1CCC(CNCc2c(C)nn3c([C@H]4CCCN(Cc5ccc(Cl)cc5)C4)ccnc23)CC1` [Example 193, (S)-1-(4-((((7-(1-(4-Chlorobenzyl)piperidin-3-yl)-2-methylpyrazolo[1,5-a]pyrimidin-3-yl)methyl)amino)methyl)piperidin-1-yl)ethan-1-one], the Ki in assay [1] and in assay [2] was below 0.5 µM in each case.

In the case of `Brc1cnn2c(C3CCCN(Cc4ccccc4)C3)ccnc12` (centres unmarked) [Example 5, 7-(1-Benzylpiperidin-3-yl)-3-bromopyrazolo[1,5-a]pyrimidine], the figures for the Ki in assay [1] and in assay [2] were 0.5 to 5 µM and below 0.5 µM, respectively.

On to `Cc1nn2c(C3CCCN(Cc4ccc(Cl)cc4)C3)ccnc2c1-c1cncnc1` (centres unmarked) [Example 130, 7-(1-(4-Chlorobenzyl)piperidin-3-yl)-2-methyl-3-(pyrimidin-5-yl)pyrazolo[1,5-a]pyrimidine], for which the Ki was 0.5 to 5 µM in assay [1] and above 1 µM in assay [2].

On to `COc1cnccc1-c1c(C)nn2c(C3CCCN(Cc4ccccc4)C3)ccnc12` (centres unmarked) [Example 57, 7-(1-Benzylpiperidin-3-yl)-3-(3-methoxypyridin-4-yl)-2-methylpyrazolo[1,5-a]pyrimidine], for which the Ki in assay [1] was 0.5 to 5 µM; in assay [2], above 1 µM.

As to `Cc1noc(C)c1-c1c(C)nn2c(C3CCCN(Cc4ccc(Cl)cc4)C3)ccnc12` (centres unmarked) [Example 133, 4-(7-(1-(4-Chlorobenzyl)piperidin-3-yl)-2-methylpyrazolo[1,5-a]pyrimidin-3-yl)-3,5-dimethylisoxazole], the Ki is above 5 µM in assay [1] and above 1 µM in assay [2].

On to `Cc1cc2nccc(C3CCCN(Cc4ccccc4F)C3)n2n1` (centres unmarked) [Example 63, 7-(1-(2-Fluorobenzyl)piperidin-3-yl)-2-methylpyrazolo[1,5-a]pyrimidine], for which the Ki in assay [1] is above 5 µM; in assay [2], above 1 µM.

`Cc1nn2c([C@H]3CCCN([C@H](CO)c4ccccc4)C3)ccnc2c1-c1ccncc1` [Example 107, (S)-2-((S)-3-(2-methyl-3-(pyridin-4-yl)pyrazolo[1,5-a]pyrimidin-7-yl)piperidin-1-yl)-2-phenylethanol]: the Ki is above 5 µM in assay [1] and above 1 µM in assay [2].

Take `Cc1nn2c(C3CCCN(Cc4ccc(Cl)cc4)C3)ccnc2c1CN1CCN(S(C)(=O)=O)CC1` (centres unmarked) [Example 175, 7-(1-(4-Chlorobenzyl)piperidin-3-yl)-2-methyl-3-((4-(methylsulfonyl)piperazin-1-yl)methyl)pyrazolo[1,5-a]pyrimidine]: the Ki in assay [1] is above 5 µM; in assay [2], above 1 µM.

On to `CN(CCN)c1cc2nccc(C3CCCN(Cc4ccccc4)C3)n2n1` (centres unmarked) [Example 80, N^1-(7-(1-Benzylpiperidin-3-yl)pyrazolo[1,5-a]pyrimidin-2-yl)-N^1-methylethane-1,2-diamine], for which the Ki in assay [1] is 0.5 to 5 µM; in assay [2] it was above 1 µM.

For `Cc1nn2c(C3CCCN(Cc4ccccc4)C3)ccnc2c1CNCc1ccccc1` (centres unmarked) [Example 98, N-Benzyl-1-(7-(1-benzylpiperidin-3-yl)-2-methylpyrazolo[1,5-a]pyrimidin-3-yl)methanamine], the values for the Ki in assay [1] and in assay [2] were 0.5 to 5 µM and below 0.5 µM, respectively.

For `Cc1nn2c(C3CCCN(Cc4ccc(Cl)cc4)C3)ccnc2c1CN1CCCCC1` (centres unmarked) [Example 169, 7-(1-(4-Chlorobenzyl)piperidin-3-yl)-2-methyl-3-(piperidin-1-ylmethyl)pyrazolo[1,5-a]pyrimidine], the Ki in assay [1] was 0.5 to 5 µM; in assay [2], below 0.5 µM.
